Laboratory results published in patent US8952024B2, “Herbicidal pyrimidone derivatives” (E I du Pont de Nemours and Company, priority 2009, dated 2015).

How the values were obtained:
Type in all cases: in vivo
corn (Zea mays) = test: Test B pre-/postemergence plant response
Outline: (§1)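 Response scores were assigned visually after 13 to 15 days in a greenhouse, comparing treated pots with controls on a 0–100 scale where 100 denotes complete control. Preemergence treatments went onto freshly seeded loam/sand soil; postemergence treatments onto plants 2 to 18 cm tall.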

[1] = test system: Italian ryegrass (Lolium multiflorum); test: Test B pre-/postemergence plant response
Outline: as §1

[2] = test system: pigweed (Amaranthus retroflexus); test: Test B pre-/postemergence plant response
Outline: as §1

[3] = test system: cocklebur (Xanthium strumarium); test: Test B pre-/postemergence plant response
Outline: as §1

[4] = test system: Surinam grass (Brachiaria decumbens); test: Test B pre-/postemergence plant response
Outline: as §1

wild oat (Avena fatua) = test: Test B pre-/postemergence plant response
Outline: as §1

[5] = test system: giant foxtail (Setaria faberii); test: Test B pre-/postemergence plant response
Outline: as §1

[6] = test system: downy bromegrass (Bromus tectorum); test: Test B pre-/postemergence plant response
Outline: as §1

[7] = test system: blackgrass (Alopecurus myosuroides); test: Test B pre-/postemergence plant response
Outline: as §1

[8] = test system: morningglory (Ipomoea coccinea); test: Test B pre-/postemergence plant response
Outline: as §1

[9] = test system: chickweed (Stellaria media); test: Test B postemergence plant response; details: Postemergence
Outline: (§2)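 Plants at the 1- to 4-leaf stage (2 to 18 cm tall), grown in pots of peat moss/vermiculite medium with wetting agent and starter nutrients, received postemergence applications of test chemicals. After 13 to 15 days in a greenhouse, injury was rated visually against untreated controls on a 0 (no effect) to 100 (complete control) scale.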

[10] = test system: windgrass (Apera spica-venti); test: Test B postemergence plant response; details: Postemergence
Outline: as §2

[11] = test system: canarygrass (Phalaris minor); test: Test B postemergence plant response; details: Postemergence
Outline: as §2

[12] = 250 g ai/ha, Preemergence, 0 to 100 scale
[13] = Postemergence, 31 g ai/ha, scale 0 to 100 (0 no effect, 100 complete control)
[14] = Postemergence, 62 g ai/ha, scale 0 (no effect) to 100 (complete control), 13 to 15 days
[15] = Postemergence, 125 g ai/ha, visual rating after 13 to 15 days, scale 0 (no effect) to 100 (complete control)
[16] = Postemergence, 250 g ai/ha, scale 0 to 100
[17] = Preemergence, 31 g ai/ha, scale 0 to 100 (0 no effect, 100 complete control)
[18] = Preemergence, 62 g ai/ha, scale 0 to 100 (0 no effect, 100 complete control)
[19] = Preemergence, 125 g ai/ha, 0 to 100 scale
[20] = 31 g ai/ha, scale 0 to 100 (0 no effect, 100 complete control)
[21] = 62 g ai/ha, scale 0 (no effect) to 100 (complete control), 13 to 15 days
[22] = 125 g ai/ha, visual rating after 13 to 15 days, scale 0 (no effect) to 100 (complete control)
[23] = Postemergence, 31 g ai/ha, 0 to 100 scale (0 no effect, 100 complete control)
[24] = Postemergence, 125 g ai/ha, scale 0 to 100 (0 no effect, 100 complete control)
[25] = Postemergence, 250 g ai/ha, scale 0 to 100 (0 no effect, 100 complete control), 13 to 15 days
[26] = 62 g ai/ha, postemergence, 0 is no effect, 100 is complete control, 13 to 15 days
[27] = 31 g ai/ha, 0 to 100 scale (0 no effect, 100 complete control)
[28] = 125 g ai/ha, scale 0 to 100 (0 no effect, 100 complete control)
[29] = 250 g ai/ha, scale 0 to 100 (0 no effect, 100 complete control), 13 to 15 days

Cc1cc(C)cc(-n2c(-c3ccccc3)ncc(C(=O)C3=C(O)CCCC3=O)c2=O)c1 [Compound 33]
Plant response rating, Corn (corn (Zea mays); [12]): 0 | Plant response rating, Corn (corn (Zea mays); [13]): 0 | Plant response rating, Corn (corn (Zea mays); [14]): 10 | Plant response rating, Corn (corn (Zea mays); [15]): 10 | Corn plant response rating (corn (Zea mays); [16]): 15 | Plant response rating, Corn (corn (Zea mays); [17]): 0 | Plant response rating, Corn (corn (Zea mays); [18]): 0 | Corn plant response rating (corn (Zea mays); [19]): 0 | Plant response rating, Ryegrass, Italian [1, 12]: 5 | Plant response rating, Ryegrass, Italian [1, 14]: 10 | Plant response rating, Ryegrass, Italian [1, 15]: 40 | Plant response rating, Ryegrass, Italian [1, 17]: 0 | Plant response rating, Ryegrass, Italian [1, 18]: 0 | Ryegrass, Italian plant response rating [1, 19]: 5 | Plant response rating, Pigweed [2, 12]: 100 | Plant response rating, Pigweed [2, 14]: 95 | Plant response rating, Pigweed [2, 15]: 98 | Plant response rating, Pigweed [2, 17]: 100 | Plant response rating, Pigweed [2, 18]: 100 | Pigweed plant response rating [2, 19]: 100 | Plant response rating, Cocklebur [3, 12]: 90 | Plant response rating, Cocklebur [3, 13]: 85 | Plant response rating, Cocklebur [3, 14]: 90 | Plant response rating, Cocklebur [3, 15]: 95 | Cocklebur plant response rating [3, 16]: 95 | Plant response rating, Cocklebur [3, 17]: 25 | Plant response rating, Cocklebur [3, 18]: 80 | Cocklebur plant response rating [3, 19]: 85 | Plant response rating, Surinam Grass [4, 12]: 100 | Plant response rating, Surinam Grass [4, 14]: 65 | Plant response rating, Surinam Grass [4, 15]: 75 | Plant response rating, Surinam Grass [4, 17]: 0 | Plant response rating, Surinam Grass [4, 18]: 65 | Surinam Grass plant response rating [4, 19]: 95 | Plant response rating, Oat, Wild (wild oat (Avena fatua); [12]): 50 | Plant response rating, Oat, Wild (wild oat (Avena fatua); [14]): 15 | Plant response rating, Oat, Wild (wild oat (Avena fatua); [15]): 40 | Plant response rating, Oat, Wild (wild oat (Avena fatua); [17]): 0 | Plant response rating, Oat, Wild (wild oat (Avena fatua); [18]): 0 | Oat, Wild plant response rating (wild oat (Avena fatua); [19]): 30 | Plant response rating, Foxtail, Giant [5, 12]: 98 | Plant response rating, Foxtail, Giant [5, 13]: 75 | Plant response rating, Foxtail, Giant [5, 14]: 80 | Plant response rating, Foxtail, Giant [5, 15]: 85 | Foxtail, Giant plant response rating [5, 16]: 95 | Plant response rating, Foxtail, Giant [5, 17]: 10 | Plant response rating, Foxtail, Giant [5, 18]: 45 | Foxtail, Giant plant response rating [5, 19]: 95 | Plant response rating, Bromegrass, Downy [6, 12]: 30 | Plant response rating, Bromegrass, Downy [6, 13]: 5 | Plant response rating, Bromegrass, Downy [6, 14]: 5 | Plant response rating, Bromegrass, Downy [6, 15]: 10 | Bromegrass, Downy plant response rating [6, 16]: 20 | Plant response rating, Bromegrass, Downy [6, 17]: 0 | Plant response rating, Bromegrass, Downy [6, 18]: 0 | Bromegrass, Downy plant response rating [6, 19]: 5 | Plant response rating, Blackgrass [7, 12]: 30 | Plant response rating, Blackgrass [7, 13]: 10 | Plant response rating, Blackgrass [7, 14]: 15 | Plant response rating, Blackgrass [7, 15]: 30 | Blackgrass plant response rating [7, 16]: 30 | Plant response rating, Blackgrass [7, 17]: 0 | Plant response rating, Blackgrass [7, 18]: 0 | Blackgrass plant response rating [7, 19]: 10 | Plant response rating, Morningglory [8, 12]: 90 | Plant response rating, Morningglory [8, 14]: 60 | Plant response rating, Morningglory [8, 15]: 80 | Plant response rating, Morningglory [8, 17]: 0 | Plant response rating, Morningglory [8, 18]: 15 | Morningglory plant response rating [8, 19]: 70 | Plant response rating, Chickweed [9, 20]: 80 | Plant response rating, Chickweed [9, 21]: 98 | Plant response rating, Chickweed [9, 22]: 100 | Chickweed plant response rating ([9]; 250 g ai/ha, scale 0 to 100): 100 | Plant response rating, Windgrass [10, 21]: 25 | Plant response rating, Windgrass [10, 22]: 30 | Plant response rating, Canarygrass [11, 20]: 0 | Plant response rating, Canarygrass [11, 21]: 0 | Plant response rating, Canarygrass [11, 22]: 5 | Canarygrass plant response rating ([11]; 250 g ai/ha, scale 0 to 100): 5

O=C1CCCC(O)=C1C(=O)c1cnc(-c2ccccc2)n(C2CCSCC2)c1=O [Compound 164]
Plant response rating, Corn (corn (Zea mays); [23]): 15 | Plant response rating, Corn (corn (Zea mays); [24]): 45 | Plant response rating, Corn (corn (Zea mays); [25]): 70 | Plant response rating, Ryegrass, Italian [1, 23]: 5 | Plant response rating, Ryegrass, Italian [1, 24]: 20 | Plant response rating, Ryegrass, Italian [1, 25]: 40 | Plant response rating, Pigweed [2, 23]: 98 | Plant response rating, Pigweed [2, 24]: 100 | Plant response rating, Pigweed [2, 25]: 100 | Plant response rating, Cocklebur [3, 23]: 98 | Plant response rating, Cocklebur [3, 24]: 100 | Plant response rating, Cocklebur [3, 25]: 100 | Plant response rating, Surinam Grass [4, 23]: 60 | Plant response rating, Surinam Grass [4, 24]: 95 | Plant response rating, Surinam Grass [4, 25]: 98 | Plant response rating, Oat, Wild (wild oat (Avena fatua); [23]): 25 | Plant response rating, Oat, Wild (wild oat (Avena fatua); [24]): 85 | Plant response rating, Oat, Wild (wild oat (Avena fatua); [25]): 90 | Plant response rating, Foxtail, Giant [5, 23]: 90 | Plant response rating, Foxtail, Giant [5, 24]: 98 | Plant response rating, Foxtail, Giant [5, 25]: 100 | Bromegrass, Downy plant response rating (0 to 100 scale) [6, 26]: 80 | Plant response rating, Bromegrass, Downy [6, 23]: 40 | Plant response rating, Bromegrass, Downy [6, 24]: 85 | Plant response rating, Bromegrass, Downy [6, 25]: 95 | Blackgrass plant response rating (0 to 100 scale) [7, 26]: 5 | Plant response rating, Blackgrass [7, 23]: 5 | Plant response rating, Blackgrass [7, 24]: 10 | Plant response rating, Blackgrass [7, 25]: 35 | Plant response rating, Morningglory [8, 23]: 90 | Plant response rating, Morningglory [8, 24]: 98 | Plant response rating, Morningglory [8, 25]: 100 | Plant response rating, Chickweed [9, 27]: 80 | Plant response rating, Chickweed [9, 28]: 98 | Plant response rating, Chickweed [9, 29]: 100 | Plant response rating, Windgrass [10, 27]: 5 | Plant response rating, Windgrass [10, 28]: 75 | Plant response rating, Windgrass [10, 29]: 85 | Plant response rating, Canarygrass [11, 27]: 40 | Plant response rating, Canarygrass [11, 28]: 90 | Plant response rating, Canarygrass [11, 29]: 98
